Tests used:
Assay type in all cases: cell-based
HN6 = experiment: MTS cytotoxicity assay, HN6 cells; conditions: HN6, 72 h
Description: (§1) For CellTiter 96® Aqueous One Solution Cell Proliferation Assay (MTS) (Promega, Madison, WI, USA), cells were seeded at 5 × 10^3 per well in 96-well plates in quadruplicate together a control with no cells to evaluate the background. After 24 h, the culture medium was removed, and fresh medium containing increasing concentrations of chemical compounds was added to cells. The fixed final concentrations were 0.1 μM, 1 μM, 10 μM, and 100 μM. DMSO was the vehicle used for dilution of the compounds, and its final concentration on cells was less than 0.2%. Medium-only containing wells were included as controls. […] After 3 h at 37 °C in a humidified, 5% CO2 atmosphere, the absorbance at 492 nm was recorded using an EZREAD400 (Biochrom, Cambridge, United Kingdom) plate reader. The average 490 nm absorbance from the “no cell” control wells was subtracted from all other values to yield background-corrected absorbance. Dose–response curves and CC50 values have been calculated by plotting the absorbance data as a function of inhibitor concentrations and fitting the data by least-squares nonlinear regression, according to the method of Marquardt–Levenberg, with the computer program GraphPad Prism 6.0.
(§2) Cells were incubated with a scalar concentration of DDX3X inhibitors, and after 72 h of treatment, cell viability was assessed by cytotoxicity assay. […]

DU-145 = experiment: MTS cytotoxicity assay, DU-145 cells; conditions: DU-145, 72 h
Description: as §1, §2

DDX3X = DDX3X protein expression by Western blot in GBM cells; conditions: 24 h of treatment
Description: Cells were incubated for 15 min in lysis buffer containing 1% triton, 0.1% SDS, 2 mmol/L CaCl2, 10 mg/mL orthovanadate, and 1× protease inhibitors cocktail (Sigma-Aldrich, St. Louis, MO, USA). Forty micrograms of proteins were electrophoresed in 12% SDS-polyacrylamide gel, and then, the gel was placed onto a Trans-Blot Turbo mini nitrocellulose transfer pack and transferred using a Trans-Blot Turbo Transfer System (Bio-Rad Laboratories, Hercules, CA, USA). The membrane was incubated with […] primary antibody and then with […] horseradish peroxidase (HRP)-conjugated secondary antibodies (Santa Cruz Biotechnology, Dallas, TX, USA). […]
(§3) To better characterize the antiproliferative effect of BA103, we performed further biological evaluation using GBM cell lines. The expression of DDX3X was evaluated in U87 and U251 cell lines by Western blot analysis in comparison with HepG2 cells, resulting in basally detectable mainly in U87 cells (Figure 6A). […] Thus, also according to the importance of β-catenin signaling in GBM, we analyzed whether the expression of β-catenin in U87 and U251 cells could be associated with DDX3X activity. GBM cells were treated with BA103 for 48 h, and then, β-catenin expression was evaluated by Western blot analysis and immunofluorescence analysis (Figure 7A,B, respectively). […]

U87 and U251 cells = experiment: Transwell migration assay in GBM cells; conditions: 48 h of incubation, vs untreated cells
Description: Exponential growing cells were treated with the inhibitor or vehicle for 48 h and then trypsinized, washed twice with PBS, rinsed in complete medium, incubated at 37 °C for 30 min to reconstitute the membrane structures, washed again for FCS removal, and then added to the upper compartment of collagen-coated (PTFE) Transwell insert (Corning Inc., Corning, NY, USA). Cells were allowed to migrate through coated filters for 6 h. The cells attached on the lower membrane surfaces were stained with 0.1% crystal violet w/v in 0.1 mol/L borate, pH 9.0, and 2% ethanol v/v for 20 min at room temperature. Cells were counted at 400× magnification in standard optical microscopy, and the average number of cells per field in 5 random fields was recorded. Triplicate filters were used, and the experiments were repeated at least two times.
as §3, with “activity.” for “activity. GBM cells were treated with BA103 for 48 h, and then, β-catenin expression was evaluated by Western blot analysis and immunofluorescence analysis (Figure 7A,B, respectively).”

[1] = tested on: panel of cancer cell lines (Du-145, PC3, HepG2, Huh-7, HN6, U87 and U231); experiment: Cytotoxicity screen on panel of cancer cell lines; conditions: 72 h of treatment
Description: as §1, §2

| Compound | CC50 (HN6) | CC50 (DU-145) | expression of DDX3X (DDX3X) | migration through collagen-coated Transwell filters (U87 and U251 cells) | growth inhibition in all the cell lines tested [1] |
| --- | --- | --- | --- | --- | --- |
| CCCCc1cn(-c2ccc(NC(=O)Nc3ccccc3C(F)(F)F)cc2)nn1 [BA103, 1-(4-(4-Butyl-1H-1,2,3-triazol-1-yl)phenyl)-3-(2-(trifluoromethyl)phenyl)urea] | low micromolar range | low micromolar range | reduction in the expression of DDX3X | reduced ability to migrate |  |
| CCCCc1nnc(-c2ccc(NC(=O)Nc3ccccc3C(F)(F)F)cc2)[nH]1 [Compound 4, 1-(4-(5-Butyl-4H-1,2,4-triazol-3-yl)phenyl)-3-(2-(trifluoromethyl)phenyl)urea] |  |  |  |  | showed inhibition growth capability in all the cell lines tested |

From publication PMC8582824, “Targeting DDX3X Helicase Activity with BA103 Shows Promising Therapeutic Effects in Preclinical Glioblastoma Models” (Cancers, 2021)
